Results as given in publication PMC3865603 (Cancer chemotherapy and pharmacology, 2011).

Tests used:
[1] = mice; cited from earlier work
QTcB interval = test: 12-lead ECG, QTcB interval; type: in vivo, human; conditions: baseline or pre- vs post-infusion ECGs, cycles 1 and 2
[2] = Plasma pharmacokinetics, non-compartmental; type: in vivo, human
[3] = KOS-1584 0.8 mg/m^2, 3 h infusion, cycle 1, N=1
[4] = KOS-1584 1.5 mg/m^2, 3 h infusion, cycle 1, N=4
[5] = KOS-1584 2.5 mg/m^2, 3 h infusion, cycle 1, N=4
[6] = KOS-1584 3.7 mg/m^2, 3 h infusion, cycle 1, N=3
[7] = KOS-1584 5.0 mg/m^2, 3 h infusion, cycle 1, N=4
[8] = KOS-1584 6.5 mg/m^2, 3 h infusion, cycle 1, N=6
[9] = KOS-1584 8.5 mg/m^2, 3 h infusion, cycle 1, N=3
[10] = KOS-1584 11.3 mg/m^2, 3 h infusion, cycle 1, N=4
[11] = KOS-1584 15.0 mg/m^2, 3 h infusion, cycle 1, N=4
[12] = KOS-1584 20.0 mg/m^2, 3 h infusion, cycle 1, N=5
[13] = KOS-1584 27 mg/m^2, 3 h infusion, cycle 1, N=4
[14] = KOS-1584 36 mg/m^2, 3 h infusion, cycle 1, N=16
[15] = KOS-1584 42 mg/m^2, 3 h infusion, cycle 1, N=6
[16] = KOS-1584 48 mg/m^2, 3 h infusion, cycle 1, N=2
[17] = all cohorts 0.8-48 mg/m^2, cycle 1

## C/C1=C/C[C@@H](/C(C)=C/c2csc(C)n2)OC(=O)C[C@H](O)C(C)(C)C(=O)[C@H](C)[C@@H](O)[C@@H](C)/C=C/C1 [KOS-1584, (E)-9,10-didehydroepothilone D]
[1]
  penetration of the BBB: did penetrate the BBB
QTcB interval
  effect on QTcB interval: did not show any effects
[2]; 0.8-48 mg/m^2
  linearity of pharmacokinetics: linear pharmacokinetics
[2]; [3]
  KOS-1584 AUC: 26.7 ng·h/mL
  KOS-1584 CL: 30.0 L/h/m^2
  KOS-1584 Cmax: 5.73 ng/mL
  KOS-1584 Tmax: 3.0 ng/mL
  KOS-1584 Vλ: 541 L/m^2
  KOS-1584 t1/2: 12.5 h
[2]; [4]
  KOS-1584 AUC: 64.9 ± 16.3 ng·h/mL
  KOS-1584 CL: 24.6 ± 7.63 L/h/m^2
  KOS-1584 Cmax: 9.29 ± 4.16 ng/mL
  KOS-1584 Tmax: 2.0 ± 1.2 ng/mL
  KOS-1584 Vλ: 553 ± 146 L/m^2
  KOS-1584 t1/2: 16.0 ± 3.96 h
[2]; [5]
  KOS-1584 AUC: 170 ± 2.21 ng·h/mL
  KOS-1584 CL: 14.9 ± 1.95 L/h/m^2
  KOS-1584 Cmax: 18.0 ± 5.24 ng/mL
  KOS-1584 Tmax: 3.0 ± 0.02 ng/mL
  KOS-1584 Vλ: 385 ± 109 L/m^2
  KOS-1584 t1/2: 18.2 ± 6.37 h
[2]; [6]
  KOS-1584 AUC: 359 ± 40.7 ng·h/mL
  KOS-1584 CL: 10.4 ± 1.27 L/h/m^2
  KOS-1584 Cmax: 32.9 ± 10.8 ng/mL
  KOS-1584 Tmax: 3.0 ± 0.06 ng/mL
  KOS-1584 Vλ: 279 ± 60.1 L/m^2
  KOS-1584 t1/2: 18.7 ± 3.64 h
[2]; [7]
  KOS-1584 AUC: 468 ± 140 ng·h/mL
  KOS-1584 CL: 11.3 ± 2.84 L/h/m^2
  KOS-1584 Cmax: 41.9 ± 13.4 ng/mL
  KOS-1584 Tmax: 2.61 ± 0.74 ng/mL
  KOS-1584 Vλ: 269 ± 104 L/m^2
  KOS-1584 t1/2: 16.0 ± 2.53 h
[2]; [8]
  KOS-1584 AUC: 566 ± 159 ng·h/mL
  KOS-1584 CL: 12.4 ± 2.91 L/h/m^2
  KOS-1584 Cmax: 41.9 ± 11.3 ng/mL
  KOS-1584 Tmax: 2.49 ± 0.76 ng/mL
  KOS-1584 Vλ: 348 ± 79.9 L/m^2
  KOS-1584 t1/2: 19.9 ± 4.68 h
[2]; [9]
  KOS-1584 AUC: 620 ± 317 ng·h/mL
  KOS-1584 CL: 15.9 ± 6.34 L/h/m^2
  KOS-1584 Cmax: 78.4 ± 28.8 ng/mL
  KOS-1584 Tmax: 2.96 ± 0.03 ng/mL
  KOS-1584 Vλ: 327 ± 190 L/m^2
  KOS-1584 t1/2: 13.7 ± 4.57 h
[2]; [10]
  KOS-1584 AUC: 2,206 ± 994 ng h/mL
  KOS-1584 CL: 6.28 ± 3.56 L/h/m^2
  KOS-1584 Cmax: 140 ± 41.9 ng/mL
  KOS-1584 Tmax: 2.60 ± 0.68 ng/mL
  KOS-1584 Vλ: 267 ± 197 L/m^2
  KOS-1584 t1/2: 28.5 ± 6.77 h
[2]; [11]
  KOS-1584 AUC: 2,204 ± 946 ng h/mL
  KOS-1584 CL: 7.69 ± 2.89 L/h/m^2
  KOS-1584 Cmax: 220 ± 84.7 ng/mL
  KOS-1584 Tmax: 2.97 ± 0.03 ng/mL
  KOS-1584 Vλ: 263 ± 113 L/m^2
  KOS-1584 t1/2: 23.5 ± 1.77 h
[2]; [12]
  KOS-1584 AUC: 2,440 ± 945 ng h/mL
  KOS-1584 CL: 9.28 ± 3.56 L/h/m^2
  KOS-1584 Cmax: 284 ± 153 ng/mL
  KOS-1584 Tmax: 2.38 ± 0.80 ng/mL
  KOS-1584 Vλ: 288 ± 165 L/m^2
  KOS-1584 t1/2: 20.2 ± 8.15 h
[2]; [13]
  KOS-1584 AUC: 3,190 ± 1,490 ng h/mL
  KOS-1584 CL: 10.1 ± 5.00 L/h/m^2
  KOS-1584 Cmax: 259 ± 110 ng/mL
  KOS-1584 Tmax: 3.10 ± 0.27 ng/mL
  KOS-1584 Vλ: 434 ± 339 L/m^2
  KOS-1584 t1/2: 27.8 ± 9.08 h
[2]; [14]
  KOS-1584 AUC: 5,267 ± 3,190 ng h/mL
  KOS-1584 CL: 8.98 ± 4.59 L/h/m^2
  KOS-1584 Cmax: 701 ± 425 ng/mL
  KOS-1584 Tmax: 2.67 ± 0.58 ng/mL
  KOS-1584 Vλ: 329 ± 134 L/m^2
  KOS-1584 t1/2: 27.9 ± 10.6 h
[2]; [15]
  KOS-1584 AUC: 7,355 ± 4,718 ng h/mL
  KOS-1584 CL: 8.52 ± 5.43 L/h/m^2
  KOS-1584 Cmax: 1,066 ± 513 ng/mL
  KOS-1584 Tmax: 2.95 ± 0.04 ng/mL
  KOS-1584 Vλ: 277 ± 165 L/m^2
  KOS-1584 t1/2: 24.1 ± 9.37 h
[2]; [16]
  KOS-1584 AUC: 4,727 ± 167 ng h/mL
  KOS-1584 CL: 10.1 ± 0.27 L/h/m^2
  KOS-1584 Cmax: 769 ± 42.4 ng/mL
  KOS-1584 Tmax: 2.92 ± 0.0 ng/mL
  KOS-1584 Vλ: 349 ± 205 L/m^2
  KOS-1584 t1/2: 24.1 ± 14.7 h
[2]; [17]
  mean overall clearance: 11 ± 6.17 L/h/m^2
  mean overall half-life of KOS-1584: 21.9 ± 8.75 h
  mean overall volume of distribution: 327 ± 161 L/m^2
[2]; every 3 weeks dosing, cycles 1 and 2
  accumulation: no accumulation
